# Test results: patent US8802700B2 (Vertex Pharmaceuticals Incorporated, priority 2010, dated 2014)
# Biological target: T1, ΔF508-CFTR (Homo sapiens, UniProt P13569, DEL508-508)
# T1 construct: expressed in transfected cells
# Test: Membrane potential optical assay (FRET voltage-sensor dyes, VIPR), identification of potentiator compounds
# Assay type: cell-based
# Conditions: Table 3; assay not given
# Summary of the method: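 Potentiator screen measured membrane potential via FRET between CC2-DMPE donor and DiSBAC2(3), read on VIPR II. Compound went in with the first addition of chloride-free gluconate bath; cells were ΔF508-CFTR-expressing NIH3T3 mouse fibroblasts, temperature-corrected at 27 °C for 24 h.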
# T1 sequence (P13569 with tags, fused parts or gaps DEL508-508): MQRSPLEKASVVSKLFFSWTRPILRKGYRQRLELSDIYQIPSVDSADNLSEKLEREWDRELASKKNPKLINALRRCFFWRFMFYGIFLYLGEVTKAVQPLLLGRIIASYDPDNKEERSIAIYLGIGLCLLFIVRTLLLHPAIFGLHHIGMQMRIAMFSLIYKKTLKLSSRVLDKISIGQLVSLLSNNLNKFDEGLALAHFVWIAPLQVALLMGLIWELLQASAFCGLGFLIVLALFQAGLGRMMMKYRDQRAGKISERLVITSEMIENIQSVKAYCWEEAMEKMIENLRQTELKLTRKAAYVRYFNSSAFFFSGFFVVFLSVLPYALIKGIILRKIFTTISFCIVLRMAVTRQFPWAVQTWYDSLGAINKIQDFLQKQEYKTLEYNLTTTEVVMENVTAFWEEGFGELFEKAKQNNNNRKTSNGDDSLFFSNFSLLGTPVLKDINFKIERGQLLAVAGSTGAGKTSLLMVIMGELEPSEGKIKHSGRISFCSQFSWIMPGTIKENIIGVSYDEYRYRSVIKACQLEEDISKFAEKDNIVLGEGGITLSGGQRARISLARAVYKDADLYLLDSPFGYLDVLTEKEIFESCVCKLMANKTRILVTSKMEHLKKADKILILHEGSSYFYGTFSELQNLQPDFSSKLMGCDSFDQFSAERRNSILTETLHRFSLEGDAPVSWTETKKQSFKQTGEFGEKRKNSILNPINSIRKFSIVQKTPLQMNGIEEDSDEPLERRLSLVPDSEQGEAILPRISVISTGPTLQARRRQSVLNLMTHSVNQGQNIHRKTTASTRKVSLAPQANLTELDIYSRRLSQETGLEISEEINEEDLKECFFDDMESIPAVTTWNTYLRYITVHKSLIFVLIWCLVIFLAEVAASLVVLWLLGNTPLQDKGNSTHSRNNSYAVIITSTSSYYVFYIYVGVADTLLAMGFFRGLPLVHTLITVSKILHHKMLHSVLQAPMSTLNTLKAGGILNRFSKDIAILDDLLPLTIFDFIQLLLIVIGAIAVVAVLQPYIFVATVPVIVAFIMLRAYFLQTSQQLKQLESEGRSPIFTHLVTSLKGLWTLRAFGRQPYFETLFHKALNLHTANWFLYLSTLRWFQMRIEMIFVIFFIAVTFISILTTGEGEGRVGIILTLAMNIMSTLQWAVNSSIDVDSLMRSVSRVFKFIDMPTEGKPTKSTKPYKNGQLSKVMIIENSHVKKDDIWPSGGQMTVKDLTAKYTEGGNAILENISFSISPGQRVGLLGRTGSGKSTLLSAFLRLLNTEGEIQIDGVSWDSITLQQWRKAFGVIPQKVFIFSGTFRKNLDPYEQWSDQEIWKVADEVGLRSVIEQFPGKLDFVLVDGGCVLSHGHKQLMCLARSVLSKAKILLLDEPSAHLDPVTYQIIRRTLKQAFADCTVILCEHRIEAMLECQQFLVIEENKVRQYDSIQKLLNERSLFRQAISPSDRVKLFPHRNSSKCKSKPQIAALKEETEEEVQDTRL
row,SMILES,EC50 [µM]
1,"CC(C)(C)c1cc(Cl)c(NC(=O)c2c[nH]c3ccccc3c2=O)cc1O [Compound 291, N-(2-chloro-5-hydroxy-4-tert-butyl-phenyl)-4-oxo-1H-quinoline-3-carboxamide]",< 10
2,"CCOC(=O)Nc1cc(NC(=O)c2c[nH]c3ccccc3c2=O)ccc1CC [Compound 298, [2-ethyl-5-[(4-oxo-1H-quinolin-3-yl)carbonylamino]phenyl]aminoformic acid ethyl ester]",< 10
3,"CCc1cccc(C(C)C)c1NC(=O)c1c[nH]c2ccccc2c1=O [Compound 314, N-(2-ethyl-6-isopropyl-phenyl)-4-oxo-1H-quinoline-3-carboxamide]",< 10

# Same assay, conditions: Table 3; assay not given; read-out: % Activity (% Efficacy, relative efficacy)
row,SMILES,Emax [%]
1,"COc1cccc(-c2ccccc2NC(=O)c2c[nH]c3ccccc3c2=O)c1 [Compound 283, N-[2-(3-methoxyphenyl)phenyl]-4-oxo-1H-quinoline-3-carboxamide]",> 100
2,"O=C(Nc1ccc2cn[nH]c2c1)c1c[nH]c2ccccc2c1=O [Compound 284, N-(1H-indazol-6-yl)-4-oxo-1H-quinoline-3-carboxamide]",25 to 100
3,"O=C(Nc1ccccc1-c1cccc(F)c1F)c1c[nH]c2ccccc2c1=O [Compound 285, N-[2-(2,3-difluorophenyl)phenyl]-4-oxo-1H-quinoline-3-carboxamide]",25 to 100
4,"O=C(Nc1cccc2c1CCCC2)c1c[nH]c2ccccc2c1=O [Compound 286, 1,4-dihydro-N-(1,2,3,4-tetrahydronaphthalen-5-yl)-4-oxoquinoline-3-carboxamide]",> 100
5,"CC1(c2cc(F)c(NC(=O)c3c[nH]c4cccc(O)c4c3=O)cc2O)CCCCC1 [Compound 287, N-[2-fluoro-5-hydroxy-4-(1-methylcyclohexyl)-phenyl]-5-hydroxy-4-oxo-1H-quinoline-3-carboxamide]",25 to 100
6,"COC(=O)Oc1c(NC(=O)c2c[nH]c3ccccc3c2=O)cc(F)cc1C(C)(C)C [Compound 288, N-(5-fluoro-2-methoxycarbonyloxy-3-tert-butyl-phenyl)-4-oxo-1H-quinoline-3-carboxamide]",25 to 100
7,"Cc1ccc(NC(=O)c2c[nH]c3ccccc3c2=O)c(F)c1 [Compound 289, N-(2-fluoro-4-methyl-phenyl)-4-oxo-1H-quinoline-3-carboxamide]",25 to 100
8,"CC(C)c1cccc(-c2ccccc2NC(=O)c2c[nH]c3ccccc3c2=O)c1 [Compound 290, N-[2-(3-isopropylphenyl)phenyl]-4-oxo-1H-quinoline-3-carboxamide]",25 to 100
9,"CC(C)(C)c1cc(Cl)c(NC(=O)c2c[nH]c3ccccc3c2=O)cc1O [Compound 291, N-(2-chloro-5-hydroxy-4-tert-butyl-phenyl)-4-oxo-1H-quinoline-3-carboxamide]",25 to 100
10,"O=C(Nc1cc(Cl)ccc1Oc1ccccc1)c1c[nH]c2ccccc2c1=O [Compound 292, N-(5-chloro-2-phenoxy-phenyl)-4-oxo-1H-quinoline-3-carboxamide]",25 to 100
11,"O=C(Nc1ccccc1-n1cccc1)c1c[nH]c2ccccc2c1=O [Compound 293, 4-oxo-N-[2-(1H-pyrrol-1-yl)phenyl]-1H-quinoline-3-carboxamide]",> 100
12,"O=C(Nc1ccc2[nH]ccc2c1)c1c[nH]c2ccccc2c1=O [Compound 294, N-(1H-indol-5-yl)-4-oxo-1H-quinoline-3-carboxamide]",25 to 100
13,"O=C(Nc1ccccc1N1CCCC1)c1c[nH]c2ccccc2c1=O [Compound 295, 4-oxo-N-(2-pyrrolidin-1-ylphenyl)-1H-quinoline-3-carboxamide]",25 to 100
14,"COc1nc2ccccc2c(OC)c1C(=O)Nc1ccccc1C(C)(C)C [Compound 296, 2,4-dimethoxy-N-(2-tert-butylphenyl)-quinoline-3-carboxamide]",25 to 100
15,"Cc1ccc(C)n1-c1ccccc1NC(=O)c1c[nH]c2ccccc2c1=O [Compound 297, N-[2-(2,5-dimethyl-1H-pyrrol-1-yl)phenyl]-4-oxo-1H-quinoline-3-carboxamide]",25 to 100
16,"CCOC(=O)Nc1cc(NC(=O)c2c[nH]c3ccccc3c2=O)ccc1CC [Compound 298, [2-ethyl-5-[(4-oxo-1H-quinolin-3-yl)carbonylamino]phenyl]aminoformic acid ethyl ester]",25 to 100
17,"O=C(Nc1ccc2c(c1)NCCC2)c1c[nH]c2ccccc2c1=O [Compound 299, 4-Oxo-N-(1,2,3,4-tetrahydroquinolin-7-yl)-1H-quinoline-3-carboxamide]",25 to 100
18,"CC1(C)CCNc2cc(NC(=O)c3c[nH]c4ccccc4c3=O)ccc21 [Compound 300, N-(4,4-Dimethyl-1,2,3,4-tetrahydroquinolin-7-yl)-4-oxo-1H-quinoline-3-carboxamide]",25 to 100
19,"Cn1cnnc1-c1ccc(NC(=O)c2c[nH]c3ccccc3c2=O)cc1 [Compound 301, N-[4-(4-methyl-4H-1,2,4-triazol-3-yl)phenyl]-4-oxo-1H-quinoline-3-carboxamide]",< 25
20,"O=C(Nc1ccccc1-c1ccc(CO)cc1)c1c[nH]c2ccccc2c1=O [Compound 302, N-[2-[4-(hydroxymethyl)phenyl]phenyl]-4-oxo-1H-quinoline-3-carboxamide]",25 to 100
21,"CC(=O)N1CCc2ccc(NC(=O)c3c[nH]c4ccccc4c3=O)cc2C1 [Compound 303, N-(2-acetyl-1,2,3,4-tetrahydroisoquinolin-7-yl)-4-oxo-1H-quinoline-3-carboxamide]",25 to 100
22,"CCOc1ccccc1-c1ccc(CNC(=O)OC(C)(C)C)cc1NC(=O)c1c[nH]c2ccccc2c1=O [Compound 304, {2′-Ethoxy-2-[(4-oxo-1,4-dihydroquinoline-3-carbonyl)-amino]-biphenyl-4-ylmethyl}-carbamic acid tert-butyl ester]",25 to 100

row,SMILES,Emax [%]
1,"COc1ccc(-c2ccccc2NC(=O)c2c[nH]c3ccccc3c2=O)cc1 [Compound 305, N-[2-(4-methoxyphenyl)phenyl]-4-oxo-1H-quinoline-3-carboxamide]",> 100
2,"CCOc1cccc(-c2ccccc2NC(=O)c2c[nH]c3ccccc3c2=O)c1 [Compound 306, N-[2-(3-ethoxyphenyl)phenyl]-4-oxo-1H-quinoline-3-carboxamide]",> 100
3,"O=C(Nc1ccccc1-c1cccc(Cl)c1)c1c[nH]c2ccccc2c1=O [Compound 307, N-[2-(3-chlorophenyl)phenyl]-4-oxo-1H-quinoline-3-carboxamide]",25 to 100
4,"N#CCc1ccccc1NC(=O)c1c[nH]c2ccccc2c1=O [Compound 308, N-[2-(cyanomethyl)phenyl]-4-oxo-1H-quinoline-3-carboxamide]",25 to 100
5,"O=C(Nc1cc2ccccc2cn1)c1c[nH]c2ccccc2c1=O [Compound 309, N-(3-isoquinolyl)-4-oxo-1H-quinoline-3-carboxamide]",< 25
6,"CCC(C)c1ccc(NC(=O)c2c[nH]c3ccccc3c2=O)cc1 (centres unmarked) [Compound 310, 4-oxo-N-(4-sec-butylphenyl)-1H-quinoline-3-carboxamide]",25 to 100
7,"Cc1ccc(-c2ccccc2NC(=O)c2c[nH]c3ccccc3c2=O)o1 [Compound 311, N-[2-(5-methyl-2-furyl)phenyl]-4-oxo-1H-quinoline-3-carboxamide]",25 to 100
8,"COc1ccc(-c2ccccc2NC(=O)c2c[nH]c3ccccc3c2=O)c(OC)c1 [Compound 312, N-[2-(2,4-dimethoxyphenyl)phenyl]-4-oxo-1H-quinoline-3-carboxamide]",25 to 100
9,"O=C(Nc1ccccc1-c1ccccc1F)c1c[nH]c2ccccc2c1=O [Compound 313, N-[2-(2-fluorophenyl)phenyl]-4-oxo-1H-quinoline-3-carboxamide]",25 to 100
10,"CCc1cccc(C(C)C)c1NC(=O)c1c[nH]c2ccccc2c1=O [Compound 314, N-(2-ethyl-6-isopropyl-phenyl)-4-oxo-1H-quinoline-3-carboxamide]",25 to 100
11,"Cc1cccc(C)c1NC(=O)c1c[nH]c2ccccc2c1=O [Compound 315, N-(2,6-dimethylphenyl)-4-oxo-1H-quinoline-3-carboxamide]",25 to 100
12,"CC(=O)Nc1ccc(C(C)(C)C)c(NC(=O)c2c[nH]c3ccccc3c2=O)c1 [Compound 316, N-(5-acetylamino-2-tert-butyl-phenyl)-4-oxo-1H-quinoline-3-carboxamide]",25 to 100
13,"O=C(Nc1c(Cl)cccc1Cl)c1c[nH]c2ccccc2c1=O [Compound 317, N-(2,6-dichlorophenyl)-4-oxo-1H-quinoline-3-carboxamide]",25 to 100
14,"O=C(Nc1cc(NS(=O)(=O)CCN2CCCCC2)cc(C(F)(F)F)c1)c1c[nH]c2ccccc2c1=O [Compound 318, 4-Oxo-N-[3-[2-(1-piperidyl)ethylsulfonylamino]-5-(trifluoromethyl)phenyl]-1H-quinoline-3-carboxamide]",25 to 100
15,"CC(C)(C)c1cc(F)c(NC(=O)c2c[nH]c3ccc(F)cc3c2=O)cc1O [Compound 319, 6-fluoro-N-(2-fluoro-5-hydroxy-4-tert-butyl-phenyl)-4-oxo-1H-quinoline-3-carboxamide]",25 to 100
16,"CC(C)(C)c1cc2ccc(NC(=O)c3c[nH]c4ccccc4c3=O)cc2[nH]1 [Compound 320, 4-oxo-N-(2-tert-butyl-1H-indol-6-yl)-1H-quinoline-3-carboxamide]",25 to 100
17,"O=C(Nc1ccccc1N1CCN(C(=O)c2ccccc2)CC1)c1c[nH]c2ccccc2c1=O [Compound 321, N-[2-(4-benzoylpiperazin-1-yl)phenyl]-4-oxo-1H-quinoline-3-carboxamide]",25 to 100
18,"CCc1cccc(C(C)CC)c1NC(=O)c1c[nH]c2ccccc2c1=O (centres unmarked) [Compound 322, N-(2-ethyl-6-sec-butyl-phenyl)-4-oxo-1H-quinoline-3-carboxamide]",25 to 100
19,"COC(=O)NCC(C)(C)c1ccc(NC(=O)c2c[nH]c3ccccc3c2=O)cc1 [Compound 323, [2-Methyl-2-[4-[(4-oxo-1H-quinolin-3-yl)carbonylamino]phenyl]-propyl]aminoformic acid methyl ester]",25 to 100
20,"CCCCc1ccc(NC(=O)c2c[nH]c3ccccc3c2=O)cc1 [Compound 324, N-(4-butylphenyl)-4-oxo-1H-quinoline-3-carboxamide]",25 to 100
21,"CCc1cccc(CC)c1NC(=O)c1c[nH]c2ccccc2c1=O [Compound 325, N-(2,6-diethylphenyl)-4-oxo-1H-quinoline-3-carboxamide]",25 to 100
22,"CS(=O)(=O)c1ccc(-c2ccccc2NC(=O)c2c[nH]c3ccccc3c2=O)cc1 [Compound 326, N-[2-(4-methylsulfonylphenyl)phenyl]-4-oxo-1H-quinoline-3-carboxamide]",25 to 100
